Experimental data as given in patent US6610471B1, “Methods and compositions to investigate infection by hepatitis B virus and agents to prevent and treat the infection” (priority 1998, dated 2003).

System: HBV
Assay: Non protein-associated RC and CCC HBV DNA in HBV baculovirus infected HepG2 cells (Southern blot)
Format: cell-based, hepatitis B virus
Settings: for non protein-associated RC HBV DNA, % Untreated Control: 50 pfu/cell
Procedure: On the indicated days (3, 6, and 9 days of drug treatment) HBV replication in HepG2 cultures was assessed by examining extracellular HBV DNA and intracellular replicative intermediates.
(T). […] Relaxed circular (RC) and covalently closed circular (CCC) HBV DNA is indicated. […] A conclusion from these studies is that the HBV baculovirus-HepG2 system can be used to complement other in vitro model systems currently used for testing antiviral compounds.
HepG2 cells were seeded at approximately 20% to 40% confluency and then were grown for 16 to 24 hours before infection. On the day of infection, duplicate plates of cells were trypsinized, and viable cell number was determined with a hemocytometer using Trypan blue exclusion. Average cell counts were calculated and used to determine the volume of high-titer viral stock necessary to infect cells at the indicated moi. Baculovirus was diluted into MEM-FBS to achieve the appropriate moi using volumes of 1.0 and 0.25 mL to infect 100-mm and 35-mm dishes, respectively. Baculovirus was adsorbed to HepG2 cells for one hour at 37° C. with gentle rocking every 15 minutes to ensure that the inoculum was evenly distributed. The inoculum was then aspirated and HepG2 cells were washed two times with phosphate-buffered saline and refed MEM-FBS.
Nonprotein-bound circular HBV genomes were extracted from HepG2 cells after infection by a high salt extraction of low molecular weight DNA followed by a phenol and chloroform extraction. Nucleic acids were resuspended in 50 μL of water and normalized by OD260. All samples were treated with 100 μg/mL RNase and 30 U of Plasmid-Safe ATP-Dependent DNase (Epicenter Technologies, Madison, Wis.). After a two-hour incubation at 37° C., Plasmid-Safe DNase was heat inactivated at 65° C. according to the manufacturer's instructions. Each sample was separated into two aliquots and one aliquot was digested with Xhol for one hour at 37° C. Samples were analyzed by electrophoresis and Southern blotting.
3TC was a gift of BioChem Therapeutic Inc. (Laval, Quebec, Canada). […] Medium containing 3TC was prepared daily as needed using fresh aliquots of 3TC.

Nc1ccn([C@@H]2CS[C@H](CO)O2)c(=O)n1 [3TC, (−)-2′-dideoxy-3′-thiacytidine]
non protein-associated RC HBV DNA, % Untreated Control (0.02 μM 3TC, P (from 16 h prior to infection), day 4 p.i. (3 days treatment)): 60.9 % Untreated Control | non protein-associated RC HBV DNA, % Untreated Control (0.02 μM 3TC, P (from 16 h prior to infection), day 7 p.i. (6 days treatment)): 45.2 % Untreated Control | non protein-associated RC HBV DNA, % Untreated Control (0.02 μM 3TC, T (from 24 h p.i.), day 4 p.i. (3 days treatment)): 48.8 % Untreated Control | non protein-associated RC HBV DNA, % Untreated Control (0.02 μM 3TC, T (from 24 h p.i.), day 7 p.i. (6 days treatment)): 40.2 % Untreated Control | non protein-associated RC HBV DNA, % Untreated Control (0.2 μM 3TC, P (from 16 h prior to infection), day 4 p.i. (3 days treatment)): 8.6 % Untreated Control | non protein-associated RC HBV DNA, % Untreated Control (0.2 μM 3TC, P (from 16 h prior to infection), day 7 p.i. (6 days treatment)): 10.5 % Untreated Control | non protein-associated RC HBV DNA, % Untreated Control (0.2 μM 3TC, T (from 24 h p.i.), day 4 p.i. (3 days treatment)): 17.3 % Untreated Control | non protein-associated RC HBV DNA, % Untreated Control (0.2 μM 3TC, T (from 24 h p.i.), day 7 p.i. (6 days treatment)): 10.9 % Untreated Control | non protein-associated RC HBV DNA, % Untreated Control (2.0 μM 3TC, P (from 16 h prior to infection), day 4 p.i. (3 days treatment)): 3.2 % Untreated Control | non protein-associated RC HBV DNA, % Untreated Control (2.0 μM 3TC, P (from 16 h prior to infection), day 7 p.i. (6 days treatment)): 5.6 % Untreated Control | non protein-associated RC HBV DNA, % Untreated Control (2.0 μM 3TC, T (from 24 h p.i.), day 4 p.i. (3 days treatment)): 6.8 % Untreated Control | non protein-associated RC HBV DNA, % Untreated Control (2.0 μM 3TC, T (from 24 h p.i.), day 7 p.i. (6 days treatment)): 6.7 % Untreated Control | inhibition at 2 µM (Hepatitis B virus, HepG2, read-out: inhibition of non protein-associated RC HBV DNA production): > 90%
